{"source": "patent US20230241088A1", "about": "“COMPOSITION FOR PREVENTING OR TREATING LUNG CANCER COMPRISING ORTHO-TOPOLIN RIBOSIDE AS ACTIVE INGREDIENT” (CHUNG-ANG UNIVERSITY INDUSTRY-ACADEMY COOPERATION FOUNDATION, priority 2022, published 2023)", "key": {"NSCLC cells": {"tested_on": "NSCLC cells", "assay": "MTT cell viability assay, NSCLC cells overall", "assay_type": "cell-based, Human", "method": "Human NSCLC cell lines A549, H1437, H2087, H522, and HCC827 were obtained from the Korean Cell Line Bank (KCLB, Seoul, Korea). These cells were cultured in RPMI-1640 medium (Gibco, N.Y., USA) supplemented with 10% FBS (Gibco) and 1% penicillin-streptomycin (HyClone Laboratories, Logan, Utah, USA). All cell lines were cultured under standard conditions (5% CO2, humid environment, 37° C.). A549 cells were seeded at a density of 1×10^4 cells/well and H1437, H2087, H522, HCC827, and MRCS cells at a density of 2×10^4 cells/well in 96-well plates and were cultured until cells reach approximately 70-80% confluency. The NSCLC cells were treated with plant hormones for 48 hours. Stock solution of each plant hormone was diluted with culture medium, wherein concentrations of DMSO, water, methanol, and ethanol in the culture medium were below 1% (v/v). The half-maximal inhibitory concentration (IC50) was calculated using CompuSyn software (ComboSyn Inc., Paramus, N.J., USA).\nThe inhibitory effect of plant hormones and their derivatives was investigated on 5 NSCLC cell lines (A549, H1437, H2087, H522, and HCC827). The NSCLC cells were treated with ABA, Cor, ethephon, GR-24, IAA, KR, MJ, N6b, N6i, oTR, and SS-HCS at concentrations of 0.1, 0.5, 1, 5, 10, 50, and 100 μM. Cell viability and IC50 values for 48 hours were investigated by performing the MTT assay."}, "[1]": {"tested_on": "p-ERK, p-AKT, cleaved caspase-3, LC-III in A549 cells", "assay": "Immunoblot analysis of cell lysates", "assay_type": "cell-based, Human", "details": "NSCLC cells", "method": "The immunoblot analysis was carried out according to a previously described method. A549 cells (4×10^5) were grown to approximately 70-80% confluency and treated with oTR (5, 10, and 50 μM) for 48 hours. The cell lysates and tissue lysates were prepared and subjected to SDS-PAGE for immunoblotting with the respective antibodies. Anti-caspase-3 (9662), anti-p-AKT (4058), and anti-AKT (9272) antibodies were purchased from Cell Signaling Technology (Danvers, Mass., USA). Anti-ERK1/ERK2 (MAB1576) and anti-p-ERK1/ERK2 (AF1018) were purchased from R&D Systems (Minneapolis, Minn., USA). Anti-LC-III (NB100-2331) antibody was purchased from Novus Biologicals (Littleton, Colo., USA). Anti-β-actin (sc-47778) and anti-GAPDH (sc-47724) antibody was purchased from Santa Cruz Biotechnology (Santa Cruz, Calif., USA)."}}}
{"smiles": "OC[C@H]1O[C@@H](n2cnc3c(NCc4ccccc4O)ncnc32)[C@H](O)[C@@H]1O", "note": "[oTR, ortho topolin riboside]", "values": [{"measurement": "viability of NSCLC cells", "setting": "NSCLC cells; 48 hours of oTR treatment, FIG. 1", "value": "reduced"}, {"measurement": "IC50 values compared among all tested plant hormones and derivatives", "setting": "NSCLC cells; 48 hours, MTT assay", "value": "lowest IC50 values"}, {"measurement": "cleaved caspase-3", "setting": "[1]; 50 μM oTR", "value": "significantly increased"}, {"measurement": "level of LC-III, an autophagy marker", "setting": "[1]; FIG. 6C", "value": "did not change"}, {"measurement": "phosphorylated AKT (p-AKT)", "setting": "[1]; oTR 48 hours", "value": "significantly decreased"}, {"measurement": "phosphorylated ERK1/2 (p-ERK)", "setting": "[1]; oTR 48 hours", "value": "significantly decreased"}]}
